Data: patent publication US11512053B2, “Arginine methyltransferase inhibitors and uses thereof” (priority 2013, dated 2022)
Where two headings read alike, the source gives them in different places.

Key:
[1] = target: full-length human PRMT8 isoform 1 (Homo sapiens, UniProt Q9NR22); assay: PRMT8 Biochemical Assay (3H-SAM Flashplate, peptide substrate); details: read-out: Biochemical IC50 PRMT8
Outline: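 Full-length human PRMT8 (1.5 nM, E. coli-expressed, GST removed) preincubated 30 min at room temperature with compound, then reacted with 50 nM 3H-SAM plus 550 nM cold SAM and 150 nM biotinylated H4 31-45 peptide in 20 mM Bicine pH 7.6, 1 mM TCEP, 0.005% BSG, 0.002% Tween 20, 2% DMSO. Quenched with 400 uM cold SAM; labelled peptide captured on streptavidin Flashplate, % inhibition versus 1 mM SAH and DMSO controls fitted to 4- or 3-parameter curve.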

[2] = tested on: mono-methyl arginine in RKO cells; assay: RKO Methylation Assay, In Cell Western (ICW) for detection of mono-methyl arginine and DNA content; assay type: cell-based; details: Homo sapiens, RKO, 72 h, RKO cells, read-out: In Cell Western EC30
Outline: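 RKO cells were treated with compound for 72 hours at 37 °C, methanol-fixed and stained overnight at 4 °C with anti-mono-methyl arginine (1:200), with DRAQ5 for DNA. Odyssey 800/700 nm intensity ratio was normalized to DMSO and 20 μM reference-compound controls. EC30 from triplicate nine-point curves.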

[3] = single experiment or average of multiple experiments
[4] = 72 hours compound incubation, mono-methyl arginine signal normalised to DNA content (DRAQ5), percent activation vs 20 μM reference compound
[5] = 72 hours incubation, mono-methyl arginine signal normalised to DNA content, single experiment or average of multiple experiments

full-length human PRMT8 isoform 1, sequence (Q9NR22 whole entry, canonical isoform): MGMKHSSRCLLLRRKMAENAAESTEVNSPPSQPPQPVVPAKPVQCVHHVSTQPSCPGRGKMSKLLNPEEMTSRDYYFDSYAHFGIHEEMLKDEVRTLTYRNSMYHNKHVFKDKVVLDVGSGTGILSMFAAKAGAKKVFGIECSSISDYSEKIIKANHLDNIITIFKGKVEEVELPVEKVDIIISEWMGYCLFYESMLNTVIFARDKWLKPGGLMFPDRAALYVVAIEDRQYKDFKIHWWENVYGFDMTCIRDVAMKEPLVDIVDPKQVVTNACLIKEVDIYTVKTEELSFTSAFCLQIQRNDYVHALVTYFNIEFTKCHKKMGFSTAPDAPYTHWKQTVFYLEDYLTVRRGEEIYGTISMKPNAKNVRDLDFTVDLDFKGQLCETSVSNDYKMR

Row | IC50 [1] [nM] | IC50 [1, 3] [nM] | SMILES | EC30 [2, 4] [nM] | EC30 [2, 5] [nM]
1 | < 100 | 33 | CNCCN(C)Cc1c[nH]nc1[C@H]1CC[C@@]2(CCCO2)CC1 [Compound 143] | < 3000 | 59
2 | < 100 | 78.4 | CNCCN(C)Cc1c[nH]nc1C1CCC2(CC1)CC2 [Compound 144] | < 3000 | 63
3 | < 100 | 37.4 | CNCCN(C)Cc1c[nH]nc1C1CCC2(CC1)C(=O)NC(=O)N2C (stereo not shown) [Compound 161] | 3010 to 12000 | 5020
4 | < 100 | 92.7 | CCN1C(=O)N(C)CC12CCC(c1n[nH]cc1CN(C)CCNC)CC2 (stereo not shown) [Compound 162] | 3010 to 12000 | 6680
5 | < 100 | 15.8 | CNCCN(C)Cc1c[nH]nc1C1CCC2(CC1)CCN(CCC(C)C)C2=O (stereo not shown) [Compound 163] | < 3000 | 66
6 | < 100 | 19.1 | CNCCN(C)Cc1c[nH]nc1C1CCC2(CC1)CCN(CC(C)C)C2=O (stereo not shown) [Compound 164] | < 3000 | 78
7 | < 100 | 18.1 | CNCCN(C)Cc1c[nH]nc1C1CCC2(CC1)CC(=O)N(CCC(C)C)C2 (stereo not shown) [Compound 165] | < 3000 | 510
8 | < 100 | 23 | CNCCN(C)Cc1c[nH]nc1[C@H]1CC[C@@H](COC)CC1 [Compound 166] | < 3000 | 83
9 | < 100 | 13 | CNCCN(C)Cc1c[nH]nc1[C@H]1CC[C@H](COC)CC1 [Compound 167] | < 3000 | 18
10 | < 100 | 28.1 | CCOC1CC2(CCC(c3n[nH]cc3CN(C)CCNC)CC2)CC1OCC (stereo not shown) [Compound 168] | < 3000 | 85
11 | < 100 | 10.2 | CNCCN(C)Cc1c[nH]nc1C1CCC(CC(C)C)CC1 (stereo not shown) [Compound 169] | < 3000 | 16
12 | < 100 | 29.6 | CNCCN(C)Cc1c[nH]nc1C1CCC2(CC1)NC(=O)NC2=O (stereo not shown) [Compound 175] | > 12000 | > 20000
13 | < 100 | 28.6 | CNCCN(C)Cc1c[nH]nc1C1CCC2(CCNC2=O)CC1 (stereo not shown) [Compound 176] | < 3000 | 2140
14 | 101 to 1000 | 150 | CNCCN(C)Cc1c[nH]nc1C1CCC2(CC1)OCCO2 [Compound 177] | < 3000 | 571
15 | < 100 | 20.5 | CNCCN(C)Cc1c[nH]nc1C1CCC2(CCOCC2)CC1 [Compound 178] | < 3000 | 76
16 | < 100 | 57.3 | CNCCN(C)Cc1c[nH]nc1C1CC(C)OC(C)C1 (stereo not shown) [Compound 179] | < 3000 | 476
17 | < 100 | 32.3 | CNCCN(C)Cc1c[nH]nc1C1CCC(O)C2(CCCC2)C1 (stereo not shown) [Compound 182, 9-[4-({methyl[2-(methylamino)ethyl]amino}methyl)-1H-pyrazol-3-yl]spiro[4.5]decan-6-ol] | < 3000 | 411
18 | < 100 | 24.4 | CNCCN(C)Cc1c[nH]nc1C1CCC(C)(C)C(O)C1 (stereo not shown) [Compound 185, 2,2-dimethyl-5-[4-({methyl[2-(methylamino)ethyl]amino}methyl)-1H-pyrazol-3-yl]cyclohexan-1-ol] | < 3000 | 453
19 | 101 to 1000 | 185 | CNCCN(C)Cc1c[nH]nc1[C@H]1CC[C@H](OCCOc2ccccc2)CC1 [Compound 187] | 3010 to 12000 | 3160
